Experimental data: ChEMBL document CHEMBL1201862, “PubChem BioAssay data set” (2004)
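Step 1: Grow cells in 96-well plates. Step 2: Expose to compound for 48 hours at 5 concentrations. Step 3: Interpolate endpoints linearly; if unreached, use highest concentration. GI50 = concentration required for 50% inhibition of growth.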 Active and inactive are the calls of the source. No stated cut-off is given here; in the data, active = GI50 up to about 1.1 µM and inactive = higher.

Experiments:
Assay in all cases: inhibition of tumour cell growth, NCI panel, 48 h
HOP-18 = tested on: HOP-18
M19-MEL = tested on: M19-MEL
KM-20L2 = tested on: KM-20L2
LXFL 529 = tested on: LXFL 529
DMS-114 = tested on: DMS-114
RXF 631 = tested on: RXF 631
XF498 = tested on: XF498
SNB-78 = tested on: SNB-78
DLD-1 = tested on: DLD-1

Row | SMILES | GI50 (HOP-18) | GI50 (M19-MEL) | GI50 (KM-20L2) | GI50 (LXFL 529) | GI50 (DMS-114) | GI50 (RXF 631) | GI50 (XF498) | GI50 (SNB-78) | GI50 (DLD-1)
1 | Cn1c(N)c(-c2c3ccccc3nc3ccccc23)c(=O)n(C)c1=O | > 100 µM (inactive) | > 100 µM (inactive) | > 100 µM (inactive) | > 100 µM (inactive) | > 100 µM (inactive) |  |  |  | 
2 | CC(C)(C)OC(=O)N1N=NC2C1C1CC(OCc3ccccc3)(OCc3ccccc3)C2O1 (configuration not stated) | 35.9 µM (inactive) | 37.5 µM (inactive) | > 100 µM (inactive) | 16.4 µM (inactive) | 17.7 µM (inactive) | > 100 µM (inactive) | 15.9 µM (inactive) | 43.7 µM (inactive) | 26.1 µM (inactive)
3 | CCOC(=O)C(=O)Nc1nc2c(OCC)cccc2s1 | > 100 µM (inactive) | > 100 µM (inactive) | > 100 µM (inactive) | > 100 µM (inactive) | > 100 µM (inactive) | > 100 µM (inactive) |  | > 100 µM (inactive) | > 100 µM (inactive)
4 | O=C(Nc1cccc(NC(=O)c2cc(=O)c3ccccc3o2)n1)c1cc(=O)c2ccccc2o1 |  | > 100 µM (inactive) | 68.4 µM (inactive) | 7.69 µM (inactive) | 19.2 µM (inactive) | 51.5 µM (inactive) |  | > 100 µM (inactive) | 75.9 µM (inactive)
5 | CS(=O)(=O)CSCSSCS(C)(=O)=O | 37.6 µM (inactive) | > 57.9 µM (inactive) | 55.8 µM (inactive) | 18.1 µM (inactive) | 27.3 µM (inactive) | 32 µM (inactive) | 32 µM (inactive) | 49.4 µM (inactive) | 30 µM (inactive)
6 | N#CC(/C(=N/NC(=O)C(=O)NN)C(=O)Nc1nc([N+](=O)[O-])cs1)c1ccc(Cl)cc1 (configuration not stated) |  | > 100 µM (inactive) | > 100 µM (inactive) | > 100 µM (inactive) | > 100 µM (inactive) |  | > 100 µM (inactive) | > 100 µM (inactive) | > 100 µM (inactive)
7 | Oc1ccc(O)c(-n2cccn2)c1 |  | 30 µM (inactive) | > 100 µM (inactive) | 20.9 µM (inactive) | 29.6 µM (inactive) | 50 µM (inactive) | > 100 µM (inactive) | 58.5 µM (inactive) | 63 µM (inactive)
8 | COc1ccc(CNc2nc3ccccc3nc2-c2cccs2)cc1OC | > 100 µM (inactive) | 33.1 µM (inactive) | 68.4 µM (inactive) | 15.7 µM (inactive) |  | 29.7 µM (inactive) | 16 µM (inactive) | 82.8 µM (inactive) | 
9 | Cc1ccccc1NC(=O)C(=O)C(c1cnc2ccc([N+](=O)[O-])cc2n1)[N+](=O)[O-] (configuration not stated) | > 100 µM (inactive) | 83 µM (inactive) | > 100 µM (inactive) |  | 43 µM (inactive) | 70.3 µM (inactive) |  | > 100 µM (inactive) | > 100 µM (inactive)
10 | O=C(O)c1cc(-c2ccccc2O)nc2ccccc12 | 26.2 µM (inactive) | > 100 µM (inactive) | > 100 µM (inactive) | > 100 µM (inactive) | > 100 µM (inactive) |  | > 100 µM (inactive) | > 100 µM (inactive) | > 100 µM (inactive)
11 | CC1=C2CCCC2=C/C(=N/Nc2ccc([N+](=O)[O-])cc2[N+](=O)[O-])CC1 | > 100 µM (inactive) | > 100 µM (inactive) | > 100 µM (inactive) | > 100 µM (inactive) | > 100 µM (inactive) |  | > 100 µM (inactive) | > 100 µM (inactive) | > 100 µM (inactive)
12 | N#C/C1=C(\N)CCSSSC1 |  | 32.1 µM (inactive) | 26.9 µM (inactive) | 33.1 µM (inactive) | 32.7 µM (inactive) | 41.1 µM (inactive) | 51.6 µM (inactive) | 21.7 µM (inactive) | 31.7 µM (inactive)
13 | CCC1=C(CC2NCCc3ccccc32)CC2c3cc(OC)c(OC)cc3CCN2C1 (configuration not stated) |  | 0.627 µM (active) | 0.891 µM (active) | 0.995 µM (active) |  | 1.45 µM (inactive) | 0.8 µM (active) | 1.44 µM (inactive) | 2.49 µM (inactive)
14 | CCOC(=O)CC1NC(=O)CS1 (configuration not stated) | > 100 µM (inactive) | > 100 µM (inactive) | > 100 µM (inactive) | > 100 µM (inactive) | 25.1 µM (inactive) | > 100 µM (inactive) |  | > 100 µM (inactive) | 42.5 µM (inactive)
15 | C#CCN(C)C(=O)N(CC#C)N=O | > 100 µM (inactive) | > 100 µM (inactive) | > 100 µM (inactive) | > 100 µM (inactive) | > 100 µM (inactive) | > 100 µM (inactive) |  | > 100 µM (inactive) | > 100 µM (inactive)
16 | CCc1cc(Cc2cc(CC)c(NC(=O)C3=CC(=O)CC(c4ccc(OC)cc4)O3)c(CC)c2Cl)c(Cl)c(CC)c1NC(=O)C1=CC(=O)CC(c2ccc(OC)cc2)O1 (configuration not stated) | 22.1 µM (inactive) | 17.3 µM (inactive) | 26.7 µM (inactive) | 18 µM (inactive) | 17.7 µM (inactive) | 89.7 µM (inactive) |  | 28.2 µM (inactive) | 18.4 µM (inactive)
17 | Cc1ccc(S(=O)(=O)n2cc(/C=C/C#N)c(/C=C/C#N)c2)cc1 | 20.8 µM (inactive) | > 100 µM (inactive) | 93.3 µM (inactive) | > 100 µM (inactive) | 22.6 µM (inactive) | > 100 µM (inactive) | > 100 µM (inactive) |  | 
18 | Cc1nnc2n1N=C(c1ccc(-c3ccc([N+](=O)[O-])cc3)o1)CS2 |  | > 100 µM (inactive) | > 100 µM (inactive) | > 100 µM (inactive) |  |  |  | > 100 µM (inactive) | > 100 µM (inactive)
19 | NC(=O)c1cccc(C2OC(COP(=O)(O)O)C(O)C2O)c1 (configuration not stated) |  | > 50 µM (inactive) | > 50 µM (inactive) | > 50 µM (inactive) |  |  | 14.7 µM (inactive) | 43.7 µM (inactive) | 36.6 µM (inactive)
20 | CC(=O)O[C@H]1CCN2C(=O)C=CC(OCc3ccccc3)C12 (some centres not stated) | > 100 µM (inactive) | > 100 µM (inactive) | > 100 µM (inactive) | > 100 µM (inactive) | > 100 µM (inactive) |  | > 100 µM (inactive) | > 100 µM (inactive) | > 100 µM (inactive)
21 | O=c1c2ccccc2n2nnc3ccc(NCCNCCO)c1c32 | 0.183 µM (active) | 2.26 µM (inactive) | 1.29 µM (inactive) | 2.42 µM (inactive) | 3.2 µM (inactive) | 1.85 µM (inactive) | 5.7 µM (inactive) | 7.71 µM (inactive) | 2.19 µM (inactive)
